In US20220268760A1, “ATRIAL CARDIAC MICROTISSUES FOR CHAMBER-SPECIFIC ARRHYTHMOGENIC TOXICITY RESPONSES” (Brown University, priority 2021, published 2022):

How the values were obtained:
[1] = test system: 3D atrial microtissues (hiPSC-atrial cardiomyocytes with 5% human cardiac fibroblasts); experiment: Optical mapping of action potentials of 3D atrial microtissues under 1 Hz pacing; type: cell-based; conditions: for APD30 / APD50 / APD80 / APDMxR / APDTri/APDMxR / Rise Time: mean ± SD
Procedure: (§1) 3D microtissue generation. Sterile 2% (wt/vol) agarose in PBS were pipetted into 35-microwell molds with hemispherical bottoms (FIG. 1C; 3D Petri Dish®, MicroTissues Inc., see MilliporeSigma, St. Louis, Mo., USA). After casted, hydrogels equilibrated in RPMI/B27 media with 1% Pen/Strep overnight in an incubator. Lactate-purified hiPSC-cardiomyocytes were then harvested, singularized, and suspended in RPMI/B27 media with 10% FBS and 1% Pen/Strep, collecting a subset of the cells for flow cytometry analysis of cTnT and MLC2v expression. […] Cells were allowed to settle into the cylindrical recesses for 30 minutes before adding media supplemented with 5 μM ROCK Inhibitor. Culture medium was changed one day post-seeding and replaced every other day. Self-assembling, spheroidal, and scaffold-free 3D microtissues were electrically field stimulated for six-eight days with a 1 Hz, 10.0 V, and 4.0 milliseconds duration bipolar pulse train (C-Pace EP, IonOptix, Westwood, Mass., USA) to precondition the microtissues before optical mapping. […] et al., Proc. Natl. Acad. Sci., U.S.A., 101, 18129-18134 (2004). The 3D microtissues beat synchronously with 1 Hz stimulation within two days, and tissue compaction were observed within three days post-seeding. Optical mapping of cardiac action potential. The inventors transferred hydrogels containing microtissues to a Petri dish on a temperature-controlled chamber (Dual Automatic Temperature Controller TC-344B, Warner Instrument, Hamden, Conn., USA) to maintain ambient temperatures of 35±1° C. throughout imaging. Microtissues were gently perfused in a solution containing (in mM) 140 NaCl, 5.1 KCl, 1 MgCl2, 1 CaCL2, 0.33 NaH2PO4, 5 HEPES, and 7.5 glucose warmed with an inline heater. Microtissues were allowed to equilibrate in the perfusion solution for thirty minutes and subsequently labeled with a voltage-sensitive dye (5 μM di-4-ANEPPS) for five minutes to enable membrane potential (Vm) recordings of action potential. Excess residual dyes were washed out thoroughly before data collection. An active-pixel sensor (CMOS sensor) camera acquired fluorescence images at 1000 frames-per-second, and action potential traces were reconstructed from fluorescence intensity data. Semi-automated analyses of action potential parameters were conducted using an in-house analysis software and included rise time, […] to maximum repolarization rate ([…]), and APD triangulation ([…]). Screening of arrhythmogenic compounds. […] Three molds of microtissues (two atrial cardiomyocytes and one ventricular cardiomyocytes) were used to test the compound 4-aminopyridine under 1 Hz electrical stimulation with a platinum field electrode (Myopacer EP field stimulator, IonOptix, Westwood, Mass., USA). […] At each dose, the microtissues were allowed to respond to the drug for five-ten minutes before action potential recordings were acquired. At least ten seconds of data were acquired per microtissue at each dose. Instead, three molds of atrial microtissues were used to test the compound ivabradine without electrical stimulation to investigate how action potential properties and spontaneous activity were altered in response to the drug.

[2] = test system: 3D ventricular microtissues (hiPSC-ventricular cardiomyocytes with 5% human cardiac fibroblasts); experiment: Optical mapping of action potentials of 3D ventricular microtissues under 1 Hz pacing; type: cell-based; conditions: for APD30 / APD50 / APD80 / APDTri/APDMxR / Rise Time / APDMxR: mean ± SD
Procedure: as §1

[3] = test system: 3D atrial microtissues (spontaneous activity, If channel); experiment: Spontaneous action potential activity of atrial microtissues without electrical stimulation; type: cell-based, human
Procedure: 3D microtissue generation. Sterile 2% (wt/vol) agarose in PBS were pipetted into 35-microwell molds with hemispherical bottoms (FIG. 1C; 3D Petri Dish®, MicroTissues Inc., see MilliporeSigma, St. Louis, Mo., USA). After casted, hydrogels equilibrated in RPMI/B27 media with 1% Pen/Strep overnight in an incubator. Lactate-purified hiPSC-cardiomyocytes were then harvested, singularized, and suspended in RPMI/B27 media with 10% FBS and 1% Pen/Strep, collecting a subset of the cells for flow cytometry analysis of cTnT and MLC2v expression. […] Cells were allowed to settle into the cylindrical recesses for 30 minutes before adding media supplemented with 5 μM ROCK Inhibitor. Culture medium was changed one day post-seeding and replaced every other day. Self-assembling, spheroidal, and scaffold-free 3D microtissues were electrically field stimulated for six-eight days with a 1 Hz, 10.0 V, and 4.0 milliseconds duration bipolar pulse train (C-Pace EP, IonOptix, Westwood, Mass., USA) to precondition the microtissues before optical mapping. […] et al., Proc. Natl. Acad. Sci., U.S.A., 101, 18129-18134 (2004). The 3D microtissues beat synchronously with 1 Hz stimulation within two days, and tissue compaction were observed within three days post-seeding. Optical mapping of cardiac action potential. The inventors transferred hydrogels containing microtissues to a Petri dish on a temperature-controlled chamber (Dual Automatic Temperature Controller TC-344B, Warner Instrument, Hamden, Conn., USA) to maintain ambient temperatures of 35±1° C. throughout imaging. Microtissues were gently perfused in a solution containing (in mM) 140 NaCl, 5.1 KCl, 1 MgCl2, 1 CaCL2, 0.33 NaH2PO4, 5 HEPES, and 7.5 glucose warmed with an inline heater. Microtissues were allowed to equilibrate in the perfusion solution for thirty minutes and subsequently labeled with a voltage-sensitive dye (5 μM di-4-ANEPPS) for five minutes to enable membrane potential (Vm) recordings of action potential. Excess residual dyes were washed out thoroughly before data collection. An active-pixel sensor (CMOS sensor) camera acquired fluorescence images at 1000 frames-per-second, and action potential traces were reconstructed from fluorescence intensity data. Semi-automated analyses of action potential parameters were conducted using an in-house analysis software and included rise time, […] to maximum repolarization rate ([…]), and APD triangulation ([…]). Screening of arrhythmogenic compounds. […] Three molds of microtissues (two atrial cardiomyocytes and one ventricular cardiomyocytes) were used to test the compound 4-aminopyridine under 1 Hz electrical stimulation with a platinum field electrode (Myopacer EP field stimulator, IonOptix, Westwood, Mass., USA). […]

[4] = test system: hiPSC-derived cardiomyocytes (MLC2v); experiment: Flow cytometry of MLC2v expression in hiPSC-cardiomyocytes; type: cell-based, human; conditions: supplementation at days 3-6 of differentiation; without it 31±0.2, p<0.05; in % (unit assumed)
Procedure: Cardiomyocyte differentiation. The inventors differentiated atrial and ventricular cardiomyocytes ([…] ) from GCaMP6f-expressing human induced pluripotent stem cells (hiPSCs; WTC human iPSCs, Gladstone Institutes, San Francisco, Calif., USA) using small molecule modulations of Wnt signaling, as described previously by Burridge et al., Nature Methods, 11, 855-860 (2014), with slight modifications. hiPSCs were cultured on vitronectin coated plates in Essential 8 Medium (E8 media; Thermo Fisher Scientific, Waltham, Calif., USA). Before starting differentiation, hiPSCs were singularized, seeded onto Matrigel-coated plates in E8 media with 5 μM ROCK Inhibitor (RI; Thermo Fisher Scientific, Waltham, Calif., USA) and cultured to 80% confluency, at which point the cells were treated with 4.5 μM CHIR 99021 (Tocris Bioscience, Minneapolis, Minn., USA), a glycogen synthase kinase 3 (GSK3) inhibitor, for 24±1 hours in chemically defined medium CDM3 basal medium (RPMI 1640 Thermo Fisher Scientific, Waltham, Mass., USA) supplemented with L-ascorbic acid and human serum albumin). […] Samples were run on a BD FACSAriaTM Illu Flow Cytometer (BD Biosciences, San Jose, Calif.), and data were analyzed with FlowJo (BD Biosciences, San Jose, Calif.).

Structure (SMILES): Nc1ccncc1 [4-Aminopyridine]
- APD30 ([1]; 1 μM): 75.2 ± 11.4 ms
- APD50 ([1]; 1 μM): 95.7 ± 12.9 ms
- APD80 ([1]; 1 μM): 121.4 ± 16.2 ms
- APDMxR ([1]; 1 μM): 126.6 ± 15.8 ms
- APDTri/APDMxR ([1]; 1 μM): 0.24 ± 0.03
- Rise Time ([1]; 1 μM, n=3 batches): 11.9 ± 2.6 ms
- APD30 ([1]; 3 μM): 75.2 ± 11.4 ms
- APD50 ([1]; 3 μM): 97.5 ± 11.4 ms
- APD80 ([1]; 3 μM): 123.5 ± 14.7 ms
- APDMxR ([1]; 3 μM): 128.3 ± 12.9 ms
- APDTri/APDMxR ([1]; 3 μM): 0.24 ± 0.03
- Rise Time ([1]; 3 μM): 11.8 ± 2.2 ms
- Change of rise time and APDTri (in words) ([1]; 100 μM): significant increase
- APD30 ([1]; 100 μM): 84.0 ± 10.6 ms
- APD50 ([1]; 100 μM): 104.8 ± 12.0 ms
- APD80 ([1]; 100 μM): 129.9 ± 15.9 ms
- APDMxR ([1]; 100 μM): 136.6 ± 14.6 ms
- APDTri/APDMxR ([1]; 100 μM): 0.23 ± 0.03
- Rise Time ([1]; 100 μM): 14.0 ± 3.7 ms
- Change of APD30, APD50, APD80 and APDMxR (in words) ([1]; increasing doses (1, 3, 100 μM)): significantly prolonged
- APD30 ([2]; 1 μM): 244.6 ± 38.4 ms
- APD50 ([2]; 1 μM): 287.8 ± 49.9 ms
- APD80 ([2]; 1 μM): 329.6 ± 50.6 ms
- APDTri/APDMxR ([2]; 1 μM): 0.09 ± 0.01′
- Rise Time ([2]; 1 μM): 6.9 ± 1.9 ms
- APD30 ([2]; 3 μM): 233.3 ± 35.8 ms
- APD50 ([2]; 3 μM): 275.7 ± 47.7 ms
- APD80 ([2]; 3 μM): 321.6 ± 54.1 ms
- APDMxR ([2]; 3 μM): 307.5 ± 55.2 ms
- APDTri/APDMxR ([2]; 3 μM): 0.10 ± 0.02
- Rise Time ([2]; 3 μM): 7.1 ± 2.4 ms
- APD30 ([2]; 100 μM): 236.7 ± 32.5 ms
- APD50 ([2]; 100 μM): 280.0 ± 44.0 ms
- APD80 ([2]; 100 μM): 325.6 ± 48.5 ms
- APDMxR ([2]; 100 μM): 312.5 ± 51.7 ms
- APDTri/APDMxR ([2]; 100 μM): 0.10 ± 0.02
- Rise Time ([2]; 100 μM): 7.5 ± 2.6 ms
- Change of APD30, APD50, APD80 and APDMxR (in words) ([2]; all dosages): No significant changes

Structure (SMILES): COc1cc2c(cc1OC)CC(=O)N(CCCN(C)C[C@H]1Cc3cc(OC)c(OC)cc31)CC2 [Ivabradine]
- Effect on spontaneous activity (share of microtissues, in words) ([3]; atrial microtissues, 1 μM, no electrical stimulation): eliminate spontaneous activity in more than half of the atrial microtissues
- Effect on spontaneous action potential events (in words) ([3]; atrial microtissues, all tested dosages): significantly reduced spontaneous action potential events
- Effect on spontaneous activity (in words) ([3]; atrial microtissues, higher dosages): loss of spontaneous activity
- Voltage trace events (in words) ([3]; small subset of spontaneous atrial microtissues, 5 μM, recovered with 1 Hz pacing): events resembling failed depolarization

Structure (SMILES): CC1=C(/C=C/C(C)=C/C=C/C(C)=C/C(=O)O)C(C)(C)CCC1 [Retinoic acid]
- MLC2v+ expression of cardiomyocytes [4]: 18±5
